Experimental data: BindingDB's records for doi:10.1021/acsmedchemlett.8b00220 (Merck, 2018)

Key:
[1] = Inhibition of CYP3A4 (unknown origin) co-incubated with substrate
[2] = Inhibition of CYP3A4 (unknown origin) preincubated followed by substrate addition

IC50 [1]: > 30 µM | IC50 [2]: 2 µM
Structure (SMILES): CS[C@@]1(C(=O)Nc2ccc3[nH]nc(-c4ccc(F)cc4)c3c2)CCN(CC(=O)N2CC=C(c3ccc(-c4ncccn4)cc3)CC2)C1 [US8546404, 613]
